Results taken from paper PMC11793105, “A kalihinol analog disrupts apicoplast function and vesicular trafficking in P. falciparum malaria” (Science (New York, N.Y.), 2024).

Test system: P. falciparum D10-ACP-GFP (MRA-568)
Assay: SYBR Green I growth inhibition assay, D10-ACP-GFP
Format: cell-based, Plasmodium falciparum
Settings: early-ring stage, 72 h exposure
Experimental: Fig. 1. […] (B) SYBR Green–based dose response assays were conducted on early-ring stage parasites (6 hours after invasion). […] 3D7 WT (blue), NF54 (green), drug-resistant strains Dd2 (red), HB3 (black), W2 (gray), and D10-ACP-GFP (purple) lines (Sigmoidal, 4PL, X is concentration, n ≥ 3, nonlinear regression, CI: 95%). (C) Schematic diagram of the development of P. falciparum after two consecutive erythrocytic cycles. The time points at which MED6-189 was introduced are depicted in green. HPS, hours post synchronization. […] The images depict various developmental stages of the parasite’s intraerythrocytic life cycle. […]
Fluorescence microscopy analyses were conducted using D10-ACP-GFP transgenic parasites, which express a fusion of the acyl carrier protein (ACP) with green fluorescent protein (GFP) in the parasite apicoplast ([25]). […]
Detailed information on materials and methods is available in the supplementary materials. […] P. knowlesi assays were quantitatively measured by flow cytometry using SYBR Green I and Mitrotracker Deep Red, as previously described ([84], [85]), on a Beckman Coulter CytoFLEX. […]
P. falciparum in vitro SYBR green fluorescence-based assays The anti-malarial activity of individual analogues were evaluated in-vitro against P. falciparum 3D7 (MRA-102, drug […]
green-I based fluorescence assay. […]

Compound `[C-]#[N+][C@]1(C)CC[C@H]2[C@@H]([C@@H](C(C)C)CC[C@]2(C)[N+]#[C-])[C@H]1O` [MED6-189] has an IC50 (Plasmodium falciparum, D10, 72 h) of 17 nM and an IC50 of 17.2 nM.
